Assay results reported in patent US20070037887A1, “Blockade of mtor to prevent a hormonal adaptive response” (University of Virginia Patent Foundation, priority 2003, published 2007).

Tests used:
[1] = system: mTOR-mLST8; experiment: Coimmunoprecipitation of mLST8 with mTOR from 293T cells incubated with compound; type: cell-based; conditions: overexpressed in 293T cells, 1 h
Experimental: (§1) FIG. 11A & 11B represent data showing FTS inhibits PHAS-I phosphorylation and promotes dissociation of the mTOR-raptor complex in 293T cells. 293T cells were transfected with pcDNA3AU1-mTOR, pcDNA33HARaptor, pcDNA33HA-mLST8, and pCMV-Tag3APHAS-I (FIG. 11A). After 18 h the cells were incubated for 1 h with increasing concentrations of FTS before extracts were prepared. A sample of each extract was subjected to SDS-PAGE and immunoblotted to detect PHAS-I or PThr^36/45. AU1-mTOR was also immunoprecipitated from each extract, and immune complexes were subjected to SDSPAGE and immunoblotted with mTAb2, to detect mTOR, and with anti-HA antibodies, to detect HA-mLST8 and HA-raptor. Nontransfected 293T cells were incubated with increasing concentrations of FTS for 1 h before extracts were prepared. mTOR was immunoprecipitated with mTAb1, and samples were subjected to SDS-PAGE.
(§2) FIGS. 12A & 12B represent data showing the effects of incubating cells with increasing concentrations of FTS and GTS on mTOR activity and mTOR association with raptor and mLST8. AU1-mTOR, HA-raptor, and HAmLST8 were overexpressed in 293T cells. The cells were then incubated for 1 h with increasing concentrations of FTS (●, ▴, ▪) or GTS (∘, Δ, □) before extracts were prepared. Immunoprecipitations were then conducted with anti-AU1 antibodies. mTOR kinase activity (●, ∘) was determined by measuring ^32P incorporation into [His^6]PHAS-I in immune complex kinases assays performed with [γ-^32P]ATP. The relative amounts of HA-raptor (▴, Δ) and HA-mLST8 (▪, □) that coimmunoprecipitated with AU1-mTOR were determined after immunoblotting with anti-HA antibodies. The results (mean values±S.E. from 3 experiments) are expressed as percentages of the mTOR activity (FIG. 12A) or coimmunoprecipitating proteins (FIG. 12B) from samples incubated without FTS or GTS, and have been corrected for the amounts of AU1-mTOR immunoprecipitated.
To investigate further the inhibitory effects of FTS on mTOR signaling, the effect of the drug on the association of mTOR, raptor, and mLST8 was determined. […]

[2] = target: T1, mTOR-raptor complex (Rattus norvegicus, UniProt P42346+Q8N122); experiment: Coimmunoprecipitation of raptor with mTOR, compound added to cell extracts or immune complexes; type: binding; conditions: for amount of HA-raptor that coimmunoprecipitated with AU1-mTOR: extracts incubated with increasing concentrations
T1 construct: rows headed: amount of HA-raptor that coimmunoprecipitated with AU1-mTOR; other: extracts incubated with increasing concentrations; amount of HA-raptor that coimmunoprecipitated with AU1-mTOR; other: overexpressed in 293T cells, increasing concentrati; half maximal effect on raptor dissociation from mTOR; other: AU1-mTOR and HA-raptor overexpressed in 293T cells, 1 h; association of AU1-mTOR and HA-rapto
T1 sequence (Q9BVC4 whole entry): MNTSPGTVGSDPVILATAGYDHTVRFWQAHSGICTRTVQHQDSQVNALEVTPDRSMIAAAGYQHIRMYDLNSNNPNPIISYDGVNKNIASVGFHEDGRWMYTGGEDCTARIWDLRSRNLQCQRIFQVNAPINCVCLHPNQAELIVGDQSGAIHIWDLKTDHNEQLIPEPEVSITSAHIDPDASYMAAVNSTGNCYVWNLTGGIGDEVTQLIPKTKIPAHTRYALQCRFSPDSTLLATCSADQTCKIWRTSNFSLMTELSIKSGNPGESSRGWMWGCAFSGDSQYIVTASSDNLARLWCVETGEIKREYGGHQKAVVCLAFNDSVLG
T1 sequence (Q8N122 whole entry): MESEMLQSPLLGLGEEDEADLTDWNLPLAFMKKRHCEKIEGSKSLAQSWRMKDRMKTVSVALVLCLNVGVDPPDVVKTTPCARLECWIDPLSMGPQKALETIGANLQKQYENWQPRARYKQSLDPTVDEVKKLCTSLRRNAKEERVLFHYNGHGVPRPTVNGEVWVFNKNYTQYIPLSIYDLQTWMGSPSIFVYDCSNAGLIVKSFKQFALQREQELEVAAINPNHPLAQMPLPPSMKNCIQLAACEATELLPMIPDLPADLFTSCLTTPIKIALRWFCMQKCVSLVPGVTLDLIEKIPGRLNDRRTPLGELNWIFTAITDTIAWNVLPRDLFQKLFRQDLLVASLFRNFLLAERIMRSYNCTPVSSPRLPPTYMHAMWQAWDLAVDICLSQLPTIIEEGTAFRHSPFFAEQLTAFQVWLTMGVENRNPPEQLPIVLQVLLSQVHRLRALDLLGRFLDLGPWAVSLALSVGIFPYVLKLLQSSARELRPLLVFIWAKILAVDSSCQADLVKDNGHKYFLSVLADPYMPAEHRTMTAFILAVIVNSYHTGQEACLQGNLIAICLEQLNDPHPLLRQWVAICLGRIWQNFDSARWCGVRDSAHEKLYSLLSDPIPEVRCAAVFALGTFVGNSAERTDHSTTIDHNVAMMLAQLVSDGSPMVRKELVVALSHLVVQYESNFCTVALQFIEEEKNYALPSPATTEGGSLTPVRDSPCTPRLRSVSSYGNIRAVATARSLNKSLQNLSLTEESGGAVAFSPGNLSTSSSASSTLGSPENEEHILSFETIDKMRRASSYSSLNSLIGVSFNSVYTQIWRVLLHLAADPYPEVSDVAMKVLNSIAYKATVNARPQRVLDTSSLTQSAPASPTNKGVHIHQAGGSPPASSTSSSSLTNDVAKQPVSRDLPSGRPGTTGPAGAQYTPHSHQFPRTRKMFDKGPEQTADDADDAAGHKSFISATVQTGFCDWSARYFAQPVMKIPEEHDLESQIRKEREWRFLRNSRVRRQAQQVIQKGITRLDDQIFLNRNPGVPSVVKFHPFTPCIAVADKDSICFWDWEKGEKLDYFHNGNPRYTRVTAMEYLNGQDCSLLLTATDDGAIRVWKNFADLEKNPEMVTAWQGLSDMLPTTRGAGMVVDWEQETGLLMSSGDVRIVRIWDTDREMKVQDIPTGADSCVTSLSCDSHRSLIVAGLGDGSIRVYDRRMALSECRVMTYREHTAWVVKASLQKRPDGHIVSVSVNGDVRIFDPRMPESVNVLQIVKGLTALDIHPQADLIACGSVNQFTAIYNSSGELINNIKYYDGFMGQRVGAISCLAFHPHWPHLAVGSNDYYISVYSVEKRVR
Experimental: 293T cells were transfected with pcDNA3 alone (Vec.) or with a combination of pcDNA3AU1-mTOR, pcDNA33HA-Raptor, and pcDNA33HA-mLST8. Extracts of the cells were incubated with increasing concentrations of FTS before AU1-mTOR was immunoprecipated. Samples of the immune complexes were incubated with [γ-^32P]ATP and recombinant [His^6]PHAS-I, then subjected to SDS-PAGE and transferred to an immobilon membrane. After obtaining a phosphorimage of the membrane to detect ^32P-PHAS-I, the membrane was immunoblotted with PThr^36/45 antibodies. Other samples of the immune complexes were subjected to SDS-PAGE and immunoblots were prepared with antibodies to the HA epitope or to mTOR (see FIG. 13A). Extracts of nontransfected 293T cells were incubated with increasing concentrations of FTS before mTOR was immunoprecipated with mTAb1. A control immunoprecipitation was conducted using nonimmune IgG (NI). Immune complexes were subjected to SDS-PAGE and immunoblots were prepared with antibodies to mLST8, mTOR, and raptor.
Samples of extracts from 293T cells overexpressing AU1-mTOR, HA-raptor, and HA-mLST8 were incubated for 1 h with increasing concentrations of FTS (●, ▴, ▪) or GTS (∘, Δ, □) before immunoprecipitations were conducted with anti-AU1 antibodies. mTOR kinase activity (●, ∘) was determined by measuring ^32P incorporation into [His^6]PHAS-I in immune complex kinases assays performed with [γ-^32P]ATP (see FIG. 14A). The relative amounts of HA-raptor (▴, Δ) and HA-mLST8 (▪, □) that coimmunoprecipitated with AU1-mTOR were determined after immunoblotting with anti-HA antibodies (see FIG. 14B). The results (mean values+S.E. from 5 experiments) are expressed as percentages of the mTOR activity (FIG. 14A) or coimmunoprecipitating proteins (FIG. 14B) from samples incubated without FTS or GTS, and have been corrected for the amounts of AU1-mTOR immunoprecipitated.
293T cells were transfected with pcDNA3 alone (Vec.) or with a combination of pcDNA3AU1-mTOR, pcDNA33HARaptor, and pcDNA33HA-mLST8. AU1-mTOR was immunoprecipitated and samples of the washed immune complexes were at incubated […] for 30 min with no inhibitors or with the following: caffeine (1 mM), FTS (50 μM), LY294002 (10 μM), rapamycin (1 μM) plus FKBP12 (10 μM), and 1 μM wortmannin. To prevent destruction of wortmannin, incubations were conducted in the absence of thiol reducing agents. Samples of the immune complexes were incubated for 10 min with 10 mM MnCl2, 1 mM [γ-^32P]ATP, and 50 μg/ml [His^6]PHAS-I to assess mTOR activity. Other samples were rinsed twice, subjected to SDS-PAGE, and immunoblotted with anti-HA and anti-AU1 antibodies to determine the amounts of HA-raptor and HA-mLST8 associated with AU1-mTOR. The relative amounts of ^32P incorporated into PHAS-I were determined by phosphorimaging (see FIG. 15B).

[3] = target: T1, mTOR-raptor complex; experiment: Coimmunoprecipitation of raptor with mTOR from 293T cells incubated with compound; type: cell-based; conditions: overexpressed in 293T cells, increasing concentrations, 1 h
Experimental: as §1, §2
To investigate further the inhibitory effects of FTS on mTOR signaling, the effect of the drug on the association of mTOR, raptor, and mLST8 was determined. AU1-mTOR and HA-tagged forms of raptor and mLST8 were overexpressed in 293T cells, which were then incubated with increasing concentrations of FTS before AU1-mTOR was immunoprecipitated with anti-AU1 antibodies. Immunoblots were prepared with anti-HA antibodies to assess the relative amounts of HA-raptor and HA-mLST8 that coimmunoprecipitated with AU 1-mTOR (FIG. 11A).
Results obtained with overexpressed proteins are not necessarily representative of responses of endogenous proteins. Therefore, experiments were conducted to investigate the effect FTS on the endogenous TORC1 in nontransfected cells. […]

CC(C)=CCC/C(C)=C/CC/C(C)=C/CSc1ccccc1C(=O)O [FTS, farnesylthiosalicylic acid]
amount of HA-mLST8 associated with AU1-mTOR [1]: did not appear to change
association of AU1-mTOR and HA-raptor ([2]; FTS 50 μM, comparison with other mTOR inhibitors): decreased
amount of HA-raptor that coimmunoprecipitated with AU1-mTOR [2]: decreased
amount of HA-raptor that coimmunoprecipitated with AU1-mTOR [3]: progressive decrease

CC(C)=CCC/C(C)=C/CSc1ccccc1C(=O)O [GTS, S-geranylthiosalicylic acid, reference compound]
amount of HA-mLST8 associated with AU1-mTOR [1]: relatively little effect
amount of HA-raptor that coimmunoprecipitated with AU1-mTOR [2]: progressive decreases
amount of HA-raptor that coimmunoprecipitated with AU1-mTOR [3]: relatively little effect
